{"source": "patent US20240197698A1", "about": "“TREATMENT OF ACUTE ANXIETY WITH AN ALPHA-7 NICOTINIC ACETYLCHOLINE RECEPTOR MODULATOR” (Vanda Pharmaceuticals Inc., priority 2022, published 2024)", "key": {"[1]": {"tested_on": "subjects with substantial public speaking anxiety", "assay": "Trier Social Stress Test (TSST) public speaking challenge, randomized double-blind placebo-controlled study: SUDS, CGI-C, PGI-C", "format": "in vivo, human", "parameters": "key to SUDS Mean: SUDS 0–100; 0 = no distress/totally relaxed, 100 = highest anxiety ever felt", "conditions": "for PGI-C Mean / CGI-C Mean: Post-TSST", "protocol": "A multicenter, randomized, double-blind, placebo-controlled study evaluates the efficacy and safety of VQW-765 in subjects with substantial public speaking anxiety. […] The study design is illustrated in FIG. 1 and Table 2 (below). Visit 1 includes screening for eligibility. At visit 2, subjects are asked for a baseline SUDS rating and then randomized to one of two arms in a 1:1 ratio. […] VQW-765 is provided in the form of capsules that are white, opaque, hard gelatin, size 3, containing 10 mg VQW-765 and lactose monohydrate, microcrystalline cellulose, methocel, croscarmellose sodium, colloidal silicon dioxide, and magnesium stearate. Placebo capsules are provided in size and appearance identical to those containing VQW-765. Two hours later, subjects are instructed to prepare for a 5-minute speech for a mock job interview (resting phase). After 3 minutes of preparation (anticipation phase), the subject delivered the speech in front of an interview panel with two clinical staff (performance phase). SUDS rating was collected at each minute from the resting to performance phase. Eligible subjects are trained to use SUDS, a self-reported rating scale from 0 to 100, used to measure the intensity of anxiety during the TSST. A SUDS rating of “0” equals “no distress/totally relaxed” and 100 equals “highest anxiety/distress that you have ever felt.” In addition, the Liebowitz Social Anxiety Score (LSAS) is administered, and blood samples are collected for pharmacogenetic analysis. LSAS is a clinician-administered rating scale used to assess how social anxiety plays a role in daily life across a variety of situations. The LSAS is used to study outcomes in clinical trials, and includes 24 items to assess both social anxiety in situations and avoidance of those situations. Each item is rated as 0, none; 1, mild; 2, moderate; or 3, severe. The maximal score is 144. After a waiting period of about two (2) hours from administration of study medication, subjects receive a modified Trier Social Stress Test (TSST) involving a public speaking challenge. The subject is instructed to prepare for a 5-minute speech for a job interview, and is asked for a SUDS rating (resting phase). Then the subject has 3 minutes to mentally prepare. A SUDS rating is collected at each minute interval (anticipation phase). Next, the subject gives a 5-minute speech to an audience of two clinical staff members dressed in white coats and previously unknown to the subject. A SUDS rating is collected just before the speech and then at each minute during the speech (performance phase). The speech is video recorded, and the video camera is observed by the subject. […] Physiological biomarkers associated with anxiety or acute stress response, including heart rate, blood pressure, body temperature, and sweating are monitored continuously by medical devices, including an ePatch Extended Holter Device throughout the Public Speaking challenge."}, "[2]": {"assay": "Plasma concentration of VQW-765 after the TSST by LC-MS/MS", "conditions": "single oral 10 mg; for Mean plasma concentration: female subjects"}, "[3]": {"tested_on": "subjects with substantial public speaking anxiety", "format": "in vivo, human"}}}
{"smiles": "Cc1ccc(-c2ccc(O[C@H]3CN4CCC3CC4)cn2)cc1", "note": "[VQW-765, (R)-3-(6-p-tolyl-pyridin-3-yloxy)-1-aza-bicyclo[2.2.2]octane]", "values": [{"measurement": "SUDS Mean", "setting": "[1]; Female (n = 82), Anticipation phase, P-value 0.0446 vs placebo", "value": 54.80}, {"measurement": "SUDS Mean", "setting": "[1]; Female (n = 82), Performance phase, P-value 0.0342 vs placebo", "value": 59.55}, {"measurement": "SUDS Mean", "setting": "[1]; Female (n = 82), Pre-dose phase (baseline), P-value 0.2239 vs placebo", "value": 34.27}, {"measurement": "SUDS Mean", "setting": "[1]; Female (n = 82), Resting phase, P-value 0.0576 vs placebo", "value": 49.15}, {"measurement": "SUDS Mean", "setting": "[1]; Female-50% quartile of exposure (n = 38), Anticipation phase, P-value 0.0384 vs placebo", "value": 53.07}, {"measurement": "SUDS Mean", "setting": "[1]; Female-50% quartile of exposure (n = 38), Performance phase, P-value 0.0046 vs placebo", "value": 54.37}, {"measurement": "SUDS Mean", "setting": "[1]; Female-50% quartile of exposure (n = 38), Pre-dose phase (baseline), P-value 0.4530 vs placebo", "value": 36.58}, {"measurement": "SUDS Mean", "setting": "[1]; Female-50% quartile of exposure (n = 38), Resting phase, P-value 0.0577 vs placebo", "value": 47.63}, {"measurement": "response on SUDS compared to placebo", "setting": "[1]; Females, performance phase, p=0.034", "value": "larger magnitude and significant response"}, {"measurement": "SUDS Mean", "setting": "[1]; ITT (n = 116), Anticipation phase, single oral 10 mg, P-value 0.0890 vs placebo", "value": 52.96}, {"measurement": "SUDS Mean", "setting": "[1]; ITT (n = 116), Performance phase, single oral 10 mg, P-value 0.1164 vs placebo", "value": 58.60}, {"measurement": "PGI-C Mean", "setting": "[1]; ITT (n = 116), scale 1 to 7, P-value 0.3993 vs placebo", "value": 3.4}, {"measurement": "CGI-C Mean", "setting": "[1]; ITT (n = 116), scale 1 to 7, P-value 0.4038 vs placebo", "value": 3.6}, {"measurement": "SUDS Mean", "setting": "[1]; ITT (n = 116), Pre-dose phase (baseline), single oral 10 mg, P-value 0.2215 vs placebo", "value": 34.66}, {"measurement": "SUDS Mean", "setting": "[1]; ITT (n = 116), Resting phase, single oral 10 mg, P-value 0.1423 vs placebo", "value": 47.76}, {"measurement": "SUDS Mean", "setting": "[1]; ITT-50% quartile of exposure (n = 56), Anticipation phase, P-value 0.0472 vs placebo", "value": 50.89}, {"measurement": "SUDS Mean", "setting": "[1]; ITT-50% quartile of exposure (n = 56), Performance phase, P-value 0.0332 vs placebo", "value": 55.36}, {"measurement": "SUDS Mean", "setting": "[1]; ITT-50% quartile of exposure (n = 56), Pre-dose phase (baseline), P-value 0.3845 vs placebo", "value": 35.89}, {"measurement": "SUDS Mean", "setting": "[1]; ITT-50% quartile of exposure (n = 56), Resting phase, P-value 0.1059 vs placebo", "value": 46.25}, {"measurement": "SUDS Mean", "setting": "[1]; ITT-LSAS ≥ 60 (n = 97), Anticipation phase, P-value 0.1535 vs placebo", "value": 54.05}, {"measurement": "SUDS Mean", "setting": "[1]; ITT-LSAS ≥ 60 (n = 97), Performance phase, P-value 0.1664 vs placebo", "value": 59.67}, {"measurement": "SUDS Mean", "setting": "[1]; ITT-LSAS ≥ 60 (n = 97), Pre-dose phase (baseline), P-value 0.3225 vs placebo", "value": 37.01}, {"measurement": "SUDS Mean", "setting": "[1]; ITT-LSAS ≥ 60 (n = 97), Resting phase, P-value 0.1509 vs placebo", "value": 49.28}, {"measurement": "PGI-C, difference to placebo", "setting": "[1]; ITT, p=0.399", "value": "No significant differences"}, {"measurement": "CGI-C, difference to placebo", "setting": "[1]; ITT, p=0.404", "value": "No significant differences"}, {"measurement": "intensity of anxiety as measured by the SUDS compared to placebo", "setting": "[1]; ITT, performance phase, p=0.116", "value": "trend of improvement"}, {"measurement": "performance anxiety compared to placebo", "setting": "[1]; LSAS total score≥60 with efficacious exposures, p=0.014", "value": "significantly reduced"}, {"measurement": "performance anxiety compared to placebo", "setting": "[1]; females, LSAS total score≥60 with efficacious exposures, p=0.004", "value": "significantly reduced"}, {"measurement": "SUDS compared to placebo", "setting": "[1]; males with efficacious exposures, FIG. 5C", "value": "do not show improvement"}, {"measurement": "SUDS rating compared to placebo", "setting": "[1]; males, FIG. 2C", "value": "do not show improvement"}, {"measurement": "SUDS rating compared to placebo", "setting": "[1]; middle 50% of exposure, second and third quartiles, VQW-M (1.5-8 pmol/ml), p=0.033", "value": "significant improvement"}, {"measurement": "SUDS Mean", "setting": "[1]; post-hoc, Female-Efficacious exposure (n = 46), Anticipation phase, P-value 0.0116 vs placebo", "value": 51.38}, {"measurement": "SUDS Mean", "setting": "[1]; post-hoc, Female-Efficacious exposure (n = 46), Performance phase, P-value 0.0029 vs placebo", "value": 54.00}, {"measurement": "CGI-C Mean", "setting": "[1]; post-hoc, Female-Efficacious exposure (n = 46), P-value 0.2417 vs placebo", "value": 3.4}, {"measurement": "PGI-C Mean", "setting": "[1]; post-hoc, Female-Efficacious exposure (n = 46), P-value 0.4655 vs placebo", "value": 3.4}, {"measurement": "SUDS Mean", "setting": "[1]; post-hoc, Female-Efficacious exposure (n = 46), Pre-dose phase (baseline), P-value 0.4267 vs placebo", "value": 36.30}, {"measurement": "SUDS Mean", "setting": "[1]; post-hoc, Female-Efficacious exposure (n = 46), Resting phase, P-value 0.0282 vs placebo", "value": 46.52}, {"measurement": "SUDS Mean", "setting": "[1]; post-hoc, ITT-Efficacious exposure (n = 69), Anticipation phase, P-value 0.0165 vs placebo", "value": 49.86}, {"measurement": "SUDS Mean", "setting": "[1]; post-hoc, ITT-Efficacious exposure (n = 69), Performance phase, P-value 0.0202 vs placebo", "value": 54.96}, {"measurement": "CGI-C Mean", "setting": "[1]; post-hoc, ITT-Efficacious exposure (n = 69), P-value 0.4343 vs placebo", "value": 3.5}, {"measurement": "PGI-C Mean", "setting": "[1]; post-hoc, ITT-Efficacious exposure (n = 69), P-value 0.5525 vs placebo", "value": 3.4}, {"measurement": "SUDS Mean", "setting": "[1]; post-hoc, ITT-Efficacious exposure (n = 69), Pre-dose phase (baseline), P-value 0.3368 vs placebo", "value": 35.51}, {"measurement": "SUDS Mean", "setting": "[1]; post-hoc, ITT-Efficacious exposure (n = 69), Resting phase, P-value 0.0471 vs placebo", "value": 45.07}, {"measurement": "anxiety (SUDS) during the TSST compared to placebo", "setting": "[1]; post-hoc, subjects not wearing a face mask (n=5 on VQW-765, n=6 on placebo), FIG. 9", "value": "significantly less anxious"}, {"measurement": "performance anxiety compared to placebo", "setting": "[1]; post-hoc, subjects with efficacious exposures, p=0.020, FIG. 5A", "value": "significantly alleviated"}, {"measurement": "CGI-C, difference to placebo", "setting": "[1]; post-hoc, subjects with efficacious exposures, p=0.325", "value": "does not reveal any significant difference"}, {"measurement": "PGI-C, difference to placebo", "setting": "[1]; post-hoc, subjects with efficacious exposures, p=0.376", "value": "does not reveal any significant difference"}, {"measurement": "Mean plasma concentration", "setting": "[2]; exposure group PC-1 (n = 7)", "value": 0.25, "unit": "nM"}, {"measurement": "Mean plasma concentration", "setting": "[2]; exposure group PC-2 (n = 7)", "value": 1.18, "unit": "nM"}, {"measurement": "Mean plasma concentration", "setting": "[2]; exposure group PC-3 (n = 8)", "value": 1.58, "unit": "nM"}, {"measurement": "Mean plasma concentration", "setting": "[2]; exposure group PC-4 (n = 8)", "value": 2.06, "unit": "nM"}, {"measurement": "Mean plasma concentration", "setting": "[2]; exposure group PC-5 (n = 8)", "value": 2.9, "unit": "nM"}, {"measurement": "Mean plasma concentration", "setting": "[2]; exposure group PC-6 (n = 8)", "value": 3.82, "unit": "nM"}, {"measurement": "Mean plasma concentration", "setting": "[2]; exposure group PC-7 (n = 8)", "value": 5.1, "unit": "nM"}, {"measurement": "Mean plasma concentration", "setting": "[2]; exposure group PC-8 (n = 8)", "value": 7.04, "unit": "nM"}, {"measurement": "Mean plasma concentration", "setting": "[2]; exposure group PC-9 (n = 8)", "value": 9.79, "unit": "nM"}, {"measurement": "Mean plasma concentration", "setting": "[2]; exposure group PC-10 (n = 7)", "value": 13.39, "unit": "nM"}, {"measurement": "plasma concentrations in the middle 50%, second and third quartiles", "setting": "[2]", "value": "1.57 to 6.32", "unit": "nM"}, {"measurement": "pattern of HRV change", "setting": "[3]; in vivo", "value": "significant decline"}, {"measurement": "pattern of HRV increase", "setting": "[3]; performance and recovery phases, FIGS. 6C, 6D", "value": "steady"}]}
